Data on 1 compound can be found in US20110251220A1, “Pharmaceutical compositions comprising gamma secretase modulators” (priority 2008, published 2011).

The subject of one assay is Hes-1. Nature of the assay: Hes-1 mRNA expression in OCL (quantitative RT-PCR). It counts as cell-based, human. The settings on record: mono- and coculture with OPM-2. Here is the method:
In osteoclast coculture experiments, OPM-2 cells (1×10^6 cells) were added to osteoclasts in 60 mm dishes (4×10^6 cells per dish) in 3 ml MEM medium supplemented with 10% FCS, 100 U/ml penicillin, 100 μg/ml streptomycin. GSI15 (30 μM, 60 μM) or DMSO (equivalent to 60 μM) as solvent control were added to each well (daily treatment). After 48 h, 0.5 ml OPM-2 cell suspension were harvested per well and subjected to AnnexinV-FITC/PI staining. Remaining OPM-2 cells were harvested and lysed for either RNA or protein preparation. The monolayer of osteoclasts was washed twice with ice-cold PBS and then lysed for either RNA or protein preparation directly on the plate.
Quantitative real-time reverse transcription-PCR (RT-PCR) analysis was performed using the following primer/probe sets: human Hes-1 (forward—[…], reverse—[…], probe—FAM-[…]-TAMRA) human TRAP5 (forward—[…], reverse—[…], probe FAM-[…]-TAMRA), human beta2-microglobulin (forward—ccc cca ctg aaa aag atg ag, reverse—atc caa tcc aaa tgc ggc, probe—FAM-CCTGCCGTGTGAACCATGTGACTTT-TAMRA) served as normalizer. […] For the RT-PCR reaction SuperScript™ III Platinum® One-Step Quantitative RT-PCR System (Invitrogen, Karlsruhe, Germany) was used. 50 ng total RNA were used per reaction, each RNA sample was analyzed in three replicates. […] Normalized mRNA expression data were then calculated as values relative to the respective untreated sample.

In another assay the test system is OBL. Nature of the assay: PARP cleavage in osteoblasts (OBL), mono- and coculture. It counts as cell-based, human. The conditions noted are these: mono- and cocultures, high doses of GSI15. Here is the method:
Human MM cell lines used were as follows: NCI-H929, OPM-2, LP-1, RPMI-8226, U266 (DSMZ, Braunschweig, Germany). Cell lines were cultured in RPMI 1640 medium (Biochrom, Berlin, Germany) supplemented with 10% heat-inactivated fetal calf serum (FCS, Gibco, Karlsruhe, Germany), 1 mM sodium pyruvate and 100 units/ml penicillin and 100 μg/ml streptomycin (Gibco). Human osteoclasts were obtained as described in the reference of Zavrski I, Krebbel H, Wildemann B, et al. Proteasome inhibitors abrogate osteoclast differentiation and osteoclast function. Biochem Biophys Res Commun. 2005; 333:200-205. Briefly, peripheral blood mononuclear cells (PBMC) were isolated from whole blood of healthy volunteers, using a Ficoll-Hypaque density gradient. The adherent fraction of the isolated mononuclear cells was cultured for 21 days in MEM medium (Sigma-Aldrich Chemie, Taufkirchen, Germany) supplemented with 10% FCS, 100 U/ml penicillin, 100 μg/ml streptomycin, 50 ng/ml M-CSF, and 25 ng/ml RANKL (osteoclastogenic medium), before coculture experiments and treatment with the inventive compounds started. […]
Whole cell extracts were prepared and quantified as described in Jundt F, Anagnostopoulos I, Forster R, Mathas S, Stein H, Dorken B. Activated Notch1 signaling promotes tumor cell proliferation and survival in Hodgkin and anaplastic large cell lymphoma. […]

The test system of a further assay is male Sprague-Dawley rats. Nature of the assay: PAN-model of albuminuric glomerular disease. It counts as in vivo, rat. The conditions noted are these: day 7, 500 μg/100 g rat i.p. once per day, compared to PAN alone. Here is the method: For the in vivo studies male Sprague-Dawley rats were purchased from Charles River and treated with puromycin aminoglycoside (PAN) to induce albuminuric glomerular disease as described previously (Niranjan et al., “The Notch pathway in podocytes plays a role in the development of glomerular disease.” Nat. Med. 14: 290-298, 2008). Rats were injected PAN (150 mg/kg) once. The test compounds were administered intraperitoneally (500 μg/100 g rat) once per day (n=4 animals per group). Injection of test compounds were started one day after PAN injection. All studies were performed in accordance with the European Union normative. As a positive control one group of rats received gamma secretase inhibitor DAPT.
Urinary albumine was measured at the indicated days as described previously (Sanchez-Nino et al., “The MIF receptor CD74 in diabetic podocyte injury”. J. Am. Soc. Nephrol. 20: 353-362, 2009). For total protein measurement urine samples were centrifuged and pellets were diluted in distilled water. Exton reagent (230 mM sulfosalic acid, 1.4 M sodium sulfate) was added and after 10 minutes absorbance was measured at 620 nm.

Take `CC(C)c1ccc(S(=O)(=O)Nc2cccnc2Oc2ccc(Cl)cc2)cc1` [Example 1, N-(2-(4-chlorophenoxy)pyridin-3-yl)-4-isopropylbenzenesulfonamide]: the “Hes-1 mRNA expression” value in the assay with Hes-1 is listed as “diminished Hes-1 mRNA expression”. Also, in the assay with OBL, the “PARP cleavage (apoptosis)” value was “Neither in OBL nor in MSC apoptosis was induced”. In the assay on male Sprague-Dawley rats, this compound had an inhibition of albuminuria of 56% and an inhibition of proteinuria of 50%.
